Publication PMC3306999 (Journal of Toxicology, 2012)
Like-named read-outs stand apart in the source and are kept apart here.

Tests used:
[1] = tested on: cholinergic muscarinic receptors (MRs); format: in vivo, rat; conditions: for effect on cerebellar dissociation constant (Kd) of [3H]QNB: rat, in vivo; for increase of cerebellar MRs density (Bmax): MeHg 1 mg/kg/day GD7-PND7
[2] = format: in vivo, rat
Description: (§1) The experimental regimen comprises 0.5 and 1 mg MeHg/kg (body weight) bw/day, administered to rat dams in the drinking water from gestational day (GD)7 to postnatal (PD)7, and/or PCB153 (20 mg/kg/day) dissolved in corn oil, administered to rats from GD10 to GD16.
Measurements of total Hg in cerebellum and blood also complemented the molecular studies to correlate neurochemical changes with the internal doses (see methods in [43, 52, 73]).

[3] = target: T1, MAO-B (Rattus norvegicus, UniProt P19643); test: Cerebellar MAO-B activity (radiochemical, 14C-PEA) after perinatal exposure; format: in vivo; conditions: for decrease of cerebellar MAO-B activity: male pups PD21, maternal oral MeHg 1 mg/kg/day GD7-PND7 and/or PCB153 20 mg/kg/day GD10–GD16, vs control 19.26 ± 2.05 nmol/mg protein/h
T1 construct: from tissue; host or cells: rat cerebellum homogenate (dams and PD21 offspring)
Description: as §1
(§2) The endpoints investigated in rats included total cholinergic MRs and MAO-B activity in cerebellum and total MRs in lymphocytes at weaning (i.e., PD21) both in dams and their offspring.
(§3) At the day of sacrifice, rat brains were rapidly dissected on ice to isolate cerebellum from dams and offspring and stored at −80°C until the analyses were performed. Spleens were also collected.
(ii) MAO-B activity was determined radiochemically as described by Young et al., 1986 [71] using 10 μM ^14C-PEA as the substrate. Specific MAO-B activity was determined in the presence of 100 μM pargyline hydrochloride. The reaction was started by addition of ^14C-PEA to 50 μL of tissue homogenate (0.2 mL final volume) and stopped by addition of 0.1 mL citric acid 2 M after a 15-min incubation at 37°C. Deaminated reaction products were extracted into 3 mL toluene-ethylacetate (1 : 1, v/v) and the radioactivity contained in a 1-mL aliquot of the organic phase was counted in scintillation counter. The enzyme activity was expressed as nmol/mg protein/h.

[4] = target: cholinergic muscarinic receptors (MRs) in lymphocytes; test: Spleen lymphocyte MR density and affinity after perinatal exposure; format: in vivo, rat
Description: as §1, §2, §3
(i) Rat lymphocytes were obtained from the spleen of controls and differently treated animals. MR density and affinity in rat lymphocytes were determined as described in [52].

[5] = tested on: MAO-B; conditions: St. Lawrence River (Lake St. Pierre, Quebec) fish-eating population; ref Stamler et al. 2006 [68]; cited from earlier work
[6] = format: in vivo, rat; conditions: MeHg 1 mg/kg/day; whole brain
[7] = 21-day-old, same treatments, mean ± S.D.

T1 sequence (P19643 whole entry): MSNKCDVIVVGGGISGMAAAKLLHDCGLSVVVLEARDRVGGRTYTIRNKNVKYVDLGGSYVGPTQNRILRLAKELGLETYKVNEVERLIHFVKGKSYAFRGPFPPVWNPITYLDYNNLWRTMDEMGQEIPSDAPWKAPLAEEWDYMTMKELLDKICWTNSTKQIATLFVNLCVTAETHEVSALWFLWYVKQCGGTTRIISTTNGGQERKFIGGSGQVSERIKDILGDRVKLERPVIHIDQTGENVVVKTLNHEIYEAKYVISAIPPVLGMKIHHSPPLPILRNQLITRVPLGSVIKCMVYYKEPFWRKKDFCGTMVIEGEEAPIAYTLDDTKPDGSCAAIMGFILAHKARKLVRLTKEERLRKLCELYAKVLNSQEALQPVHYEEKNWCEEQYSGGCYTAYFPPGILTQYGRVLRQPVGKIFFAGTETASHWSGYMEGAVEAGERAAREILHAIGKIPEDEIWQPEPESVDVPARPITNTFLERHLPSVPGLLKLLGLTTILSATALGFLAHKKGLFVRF

Clc1cc(Cl)c(-c2cc(Cl)c(Cl)cc2Cl)cc1Cl [PCB153, 2,2′,4,4′,5,5′-hexachlorobiphenyl]
effect on cerebellar MRs density ([1]; adult and offspring PD21, PCB153 20 mg/kg/day GD10–GD16 alone or with MeHg 1 mg/kg/day): did not modify
effect on cerebellar dissociation constant (Kd) of [3H]QNB [1]: did not affect
effect of PCB153 coexposure on brain Hg concentrations ([2]; MeHg 1 mg/kg/day + PCB153): not affected
decrease of cerebellar MAO-B activity [3]: 45%

[CH3][Hg][Cl] [MeHg, methylmercury]
increase of cerebellar MRs density (Bmax) ([1]; dams, PD21): 87%
effect on cerebellar MR density ([1]; lower MeHg dose 0.5 mg/kg/day alone or in combination with PCB153, mother and offspring): did not cause any change
increase of cerebellar MRs density (Bmax) ([1]; male pups PD21): 27%
effect on cerebellar dissociation constant (Kd) of [3H]QNB [1]: did not affect
Blood Hg, Dams ([2]; 1 mg MeHg/kg bw/day GD7-PD7 and/or 20 mg PCB153/kg bw/day GD10–GD16, mean ± S.D.): 11.33 ± 2.26 n = 4 μg/ml
Blood Hg, Offspring Female [2, 7]: 1.31 ± 0.40 n = 4 μg/ml
Blood Hg, Offspring Male [2, 7]: 1.35 ± 0.40 n = 4 μg/ml
Brain Hg, Offspring Female [2, 7]: 1.52 ± 0.33 n = 4 μg/g
Brain Hg, Offspring Male [2, 7]: 1.67 ± 0.43 n = 4 μg/g
Hg in rat blood at PD21 ([2]; perinatal 1 mg MeHg/kg/day): 1300 ppb
cerebral Hg levels in weaning rats ([2]; perinatal 1 mg MeHg/kg/day): 1.5–2.8 ppm
blood Hg levels in weaning rats ([2]; perinatal 1 mg MeHg/kg/day, both pup genders): 1.3 ± 0.4 µg/mL
Hg levels in pup blood ([2]; pups, both genders, MeHg 1 mg/kg/day): 1.35 ± 0.4 mg/L
Brain Hg, Dams ([2]; same treatments): 7.53 µg/g
effect on MAO-B activity ([3]; lower MeHg dose 0.5 mg/kg/day GD7-PND7, male and female offspring): no effects
decrease of cerebellar MAO-B activity [3]: 35%
effect on lymphocyte Kd values ([4]; MeHg 1 mg/kg/day, dams and offspring): absence of any change
increase of lymphocyte MR density (Bmax) ([4]; dams, MeHg 1 mg/kg/day GD7-PND7, vs control 33 ± 4 fmol/million cells): 139%
increase of lymphocyte MR density (Bmax) ([4]; female offspring 21 days old, MeHg 1 mg/kg/day, vs control 37 ± 4 fmol/million cells): 73%
effect on lymphocyte Kd values ([4]; lower MeHg dose 0.5 mg/kg/day): devoid of any effect
effect on lymphocyte MR density ([4]; lower MeHg dose 0.5 mg/kg/day, all groups, day 21 postpartum): did not significantly differ
increase of lymphocyte MR density (Bmax) ([4]; male offspring 21 days old, MeHg 1 mg/kg/day, vs control 41 ± 8 fmol/million cells): 49%
blood-Hg concentrations associated with MeHg-induced reduction in MAO-B activity [5]: above 3.4 μg/L
brain Hg concentration, mother versus offspring [6]: about five-fold higher
